This assay concerns MCF7 cells. Kind of assay: MCF7 invasion scratch wound assay through Matrigel in CAF conditioned media. It is filed as cell-based, human. The following applies: for effect on CD146neg CAF induced invasion: MCF7 in CD146neg CAF conditioned media.

Regarding `COc1cc2ncnc(Nc3ccc(F)c(Cl)c3)c2cc1OCCCN1CCOCC1` [gefitinib], the “effect on CD146neg CAF induced invasion” value was “successfully blocked”. Also, the “effect on CD146neg CAF induced invasion” value (listed as gefitibib) is given as “inhibited”.

B1: HBEGF: HBEGF added to CD146pos CAF conditioned media in the invasion assay (protein, UniProt Q99075 63-148, looked up)
Heparin-binding EGF-like …: DLQEADLDLLRVTLSSKPQALATPNKEEHGKRKKKGKGLGKKRDPCLRKYKDFCIHGECKYVKELRAPSCICHPGYHGERCHGLSL
With B1, the effect on invasion result (MCF7 in CD146pos CAF conditioned media) is given as “stimulated”.

Source of the values: patent US10488416B2, “Targeting breast cancer therapy based on stromal subtypes and CD146 composition” (The Regents of the University of Colorado, a Body Corporate, priority 2014, dated 2019).
